In PMC3626118 (Combinatorial chemistry & high throughput screening, 2009):

Columns and labels:
[1] = molecular target: T1, RNA triphosphatase TbCet1 (Trypanosoma brucei brucei, UniProt Q582T2); assay: Transcreener ADP fluorescence polarization assay, dose-response; assay type: biochemical
T1 sequence (Q582T2 1-253): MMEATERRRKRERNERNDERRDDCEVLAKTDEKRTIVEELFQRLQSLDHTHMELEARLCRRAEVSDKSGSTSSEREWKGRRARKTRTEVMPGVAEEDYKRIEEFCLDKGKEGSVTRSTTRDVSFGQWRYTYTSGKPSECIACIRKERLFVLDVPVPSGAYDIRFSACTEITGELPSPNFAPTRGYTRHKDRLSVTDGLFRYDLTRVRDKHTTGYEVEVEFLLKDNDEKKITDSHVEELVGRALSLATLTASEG

[2] = Solubility by laser nephelometry in assay conditions; details: for Sol. (solubility threshold): laser nephelometry, assay conditions
physchem = details: pH 8, aqueous buffer, kinetic from dmso stock

Row | IC50 [1] [µM] | SMILES | other results
1 | 0.035 | O=c1oc2c(O)c(O)cc3c(=O)oc4c(O)c(O)cc1c4c23 [SKI 210886, Ellagic acid] | 
2 | 3.9 | COc1cc(O)c2c(=O)c(O)c(-c3ccc(O)c(O)c3)oc2c1 [SKI 209674, Rhamnetin] | 
3 | 2.1 | O=c1c(O)c(-c2ccc(O)c(O)c2)oc2cc(O)ccc12 [SKI 210887, Fisetin] | 
4 | 8.8 | O=c1c(O)cc([C@H]2Oc3cc(O)cc(O)c3C[C@H]2O)cc2c([C@H]3Oc4cc(O)cc(O)c4C[C@H]3O)cc(O)c(O)c12 [SKI 209343, Theaflavin] | 
5 | 0.2 | O=C1C=C2CC3(O)COc4c(ccc(O)c4O)C3=C2C=C1O (stereo not shown) [SKI 210893, Hematein] | 
6 | 0.44 | O=c1c(O)cccc2c([C@H]3Oc4cc(O)cc(O)c4C[C@H]3O)cc(O)c(O)c12 [SKI 209509, Theaflavanin] | 
7 | 0.72 | NC[C@H](O)c1ccc(O)c(O)c1 [SKI 210170, Norepinephrine, reference compound] | solubility (physchem): > 100 µM
8 | 0.065 | O=c1c(-c2cc(O)c(O)c(O)c2)coc2cc(O)c(O)c(O)c12 [SKI 209392, Irigenol] | 
9 | 0.21 | O=c1c(O)cccc2cc(O)c(O)c(O)c12 [SKI 209468, Purpurogallin] | 

More lines, now with the values behind:

Row | SMILES | IC50 [1] [µM] | other results
10 | O=c1c(O)c(-c2cc(O)c(O)c(O)c2)oc2cc(O)cc(O)c12 [SKI 211290, Myricetin] | 7.2 | solubility ([2]; pH 8, aqueous buffer, kinetic from dmso stock): > 100 µM
11 | O=C(O[C@@H]1Cc2c(O)cc(O)cc2O[C@@H]1c1ccc(O)c(O)c1)c1cc(O)c(O)c(O)c1 [SKI 209457, Epicatechin monogallate] |  | Sol. (solubility threshold) [2]: > 100 µM
12 | Oc1cc(O)c2c(c1)O[C@H](c1cc(O)c(O)c(O)c1)[C@H](O)C2 [SKI 209444, Epigallocatechin] | 4.4 | 
13 | O=C(Oc1cc(O)cc2c1C[C@@H](OC(=O)c1cc(O)c(O)c(O)c1)[C@@H](c1cc(O)c(O)c(O)c1)O2)c1cc(O)c(O)c(O)c1 [SKI 209415, Epigallocatechin-3,5-digallate] |  | Sol. (solubility threshold) [2]: > 100 µM
14 | Nc1cccc2c1C(=O)c1cccc(N)c1C2=O [SKI 217754, Anthraquinone, 1,5-diamino] |  | Sol. (solubility threshold) [2]: > 100 µM
15 | O=C(O[C@@H]1Cc2c(O)cc(O)cc2O[C@@H]1c1cc(O)c(O)c(O)c1-c1c([C@H]2Oc3cc(O)cc(O)c3C[C@H]2O)cc(O)c(O)c1O)c1cc(O)c(O)c(O)c1 [SKI 209412, 2′,2′-Bisepigallocatechin monogallate] | 0.01 | 
16 | N[C@@H](Cc1ccc(O)c(O)c1)C(=O)O [SKI 211511, Levodopa, reference compound] | 0.03 | solubility (physchem): > 100 µM
17 | O=C(O[C@@H]1Cc2c(O)cc(O)cc2O[C@@H]1c1cc(O)c(O)c(O)c1)c1cc(O)c(O)c(O)c1 [SKI 209458, Epigallocatechin-3-monogallate] |  | Sol. (solubility threshold) [2]: > 100 µM
18 | Oc1cc2c(cc1O)C1c3ccc(O)c(O)c3OCC1(O)C2 (stereo not shown) [SKI 209325, Haematoxylin] | 1.7 | solubility (physchem): > 100 µM
